Assay results: patent US20230312528A1, “2-OXO-IMIDAZOLIDINE-4-CARBOXAMIDES AS NAV1.8 INHIBITORS” (Merck Sharp & Dohme LLC, priority 2020, published 2023)

biological target: human NaV1.8 (Homo sapiens (Human), UniProt Q9Y5Y9); experiment: Nav1.8 Qube automated patch-clamp assay; type: cell-based; conditions: human NaV1.8 stably expressed in HEK 293 cells; automated 384-well patch-clamp; resting or inactivated state not specified
Summary of the method: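 Human NaV1.8 in HEK293 cells, automated whole-cell patch clamp at room temperature: 1 Hz train of ten 20 ms pulses to 10 mV from −90 mV, repolarization to −67 mV. First- and tenth-pulse peak currents gave resting and inactivated-state IC50 values via Hill fits.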

Chain of human NaV1.8 (Q9Y5Y9 whole entry): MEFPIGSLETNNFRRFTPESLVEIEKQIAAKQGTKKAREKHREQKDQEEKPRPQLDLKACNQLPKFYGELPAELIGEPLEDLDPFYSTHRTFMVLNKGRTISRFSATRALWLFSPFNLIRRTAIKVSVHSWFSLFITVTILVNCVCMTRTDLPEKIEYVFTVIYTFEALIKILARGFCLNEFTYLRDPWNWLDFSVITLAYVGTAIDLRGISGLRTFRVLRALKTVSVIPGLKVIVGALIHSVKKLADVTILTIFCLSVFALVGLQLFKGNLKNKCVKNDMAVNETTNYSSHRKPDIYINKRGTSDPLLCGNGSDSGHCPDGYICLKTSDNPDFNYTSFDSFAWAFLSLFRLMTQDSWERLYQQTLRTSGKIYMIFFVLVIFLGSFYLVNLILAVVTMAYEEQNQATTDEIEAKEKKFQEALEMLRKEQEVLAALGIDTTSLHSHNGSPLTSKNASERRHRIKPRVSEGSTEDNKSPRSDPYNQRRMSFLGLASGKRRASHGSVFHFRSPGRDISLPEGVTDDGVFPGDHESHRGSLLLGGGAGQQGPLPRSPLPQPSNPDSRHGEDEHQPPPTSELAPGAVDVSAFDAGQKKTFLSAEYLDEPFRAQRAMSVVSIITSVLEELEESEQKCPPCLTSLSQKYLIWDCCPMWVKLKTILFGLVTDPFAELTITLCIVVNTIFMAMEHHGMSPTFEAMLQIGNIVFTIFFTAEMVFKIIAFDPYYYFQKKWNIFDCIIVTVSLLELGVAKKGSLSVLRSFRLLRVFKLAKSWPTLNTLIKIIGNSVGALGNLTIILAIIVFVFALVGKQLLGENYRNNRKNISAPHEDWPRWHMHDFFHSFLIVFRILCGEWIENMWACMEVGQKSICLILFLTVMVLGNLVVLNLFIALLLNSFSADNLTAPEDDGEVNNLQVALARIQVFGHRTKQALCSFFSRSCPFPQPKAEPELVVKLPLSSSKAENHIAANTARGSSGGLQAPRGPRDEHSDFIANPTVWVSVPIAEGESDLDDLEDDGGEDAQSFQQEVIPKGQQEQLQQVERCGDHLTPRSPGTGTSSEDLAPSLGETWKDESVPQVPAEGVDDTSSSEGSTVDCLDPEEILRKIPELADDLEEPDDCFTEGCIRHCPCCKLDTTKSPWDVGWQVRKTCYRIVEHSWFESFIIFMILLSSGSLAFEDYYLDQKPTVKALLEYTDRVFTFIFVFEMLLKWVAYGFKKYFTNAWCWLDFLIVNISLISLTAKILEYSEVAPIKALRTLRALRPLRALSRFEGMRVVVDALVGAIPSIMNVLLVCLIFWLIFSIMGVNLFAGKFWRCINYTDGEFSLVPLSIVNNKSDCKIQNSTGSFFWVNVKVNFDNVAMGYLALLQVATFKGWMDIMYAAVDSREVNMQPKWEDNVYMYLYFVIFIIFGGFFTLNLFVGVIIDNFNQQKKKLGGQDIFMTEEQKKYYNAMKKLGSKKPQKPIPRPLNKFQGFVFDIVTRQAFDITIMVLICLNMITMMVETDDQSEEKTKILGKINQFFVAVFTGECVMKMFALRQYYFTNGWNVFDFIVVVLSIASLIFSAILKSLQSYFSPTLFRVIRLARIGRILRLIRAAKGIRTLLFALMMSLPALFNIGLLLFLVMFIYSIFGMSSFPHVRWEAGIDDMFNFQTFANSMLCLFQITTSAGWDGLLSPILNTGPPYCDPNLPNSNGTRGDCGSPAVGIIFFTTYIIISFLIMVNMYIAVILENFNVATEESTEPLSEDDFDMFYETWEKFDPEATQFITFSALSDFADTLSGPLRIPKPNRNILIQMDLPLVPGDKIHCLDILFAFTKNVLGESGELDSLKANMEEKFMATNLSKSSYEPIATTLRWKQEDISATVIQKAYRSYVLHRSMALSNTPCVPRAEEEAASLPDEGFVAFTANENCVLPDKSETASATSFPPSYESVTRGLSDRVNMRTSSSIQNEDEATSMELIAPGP

Row | Compound | IC50
1 | O=C1NC[C@@H](C(=O)NC(c2ccc(F)c(Cl)c2F)C2CCCCN2CC(F)(F)F)N1 (single isomer, unassigned) [Example 58B, (S)-N-((R or S)-(3-chloro-2,4-difluorophenyl) ((R or S)-1-(2,2,2-trifluoroethyl)piperidin-2-yl)methyl)-2-oxoimidazolidine-4-carboxamide] | 35 nM
2 | O=C1NC[C@@H](C(=O)NC(c2ccc(F)c(Cl)c2F)C2CCCCN2CC(F)(F)F)N1 (single isomer, unassigned) [Example 58D, (S)-N-((R or S)-(3-chloro-2,4-difluorophenyl) ((R or S)-1-(2,2,2-trifluoroethyl)piperidin-2-yl)methyl)-2-oxoimidazolidine-4-carboxamide] | 787 nM
3 | N#Cc1ccc(C(NC(=O)[C@@H]2CNC(=O)N2)c2ccc(Cl)c(C(F)(F)F)c2)cc1 (single isomer, unassigned) [Example 60A, (S)-N-((R or S)-(4-chloro-3-(trifluoromethyl)-phenyl)(4-cyanophenyl)-methyl)-2-oxo-imidazolidine-4-carboxamide] | 3.1 nM
4 | O=C1NC[C@@H](C(=O)NC(c2ccc(F)c(Cl)c2)c2ccc(Cl)c(C(F)(F)F)n2)N1 (single isomer, unassigned) [Example 62A, (S)-N-((R or S)-(3-chloro-4-fluorophenyl)(5-chloro-6-(trifluoromethyl)pyridin-2-yl)methyl)-2-oxoimidazolidine-4-carboxamide] | 8 nM
5 | O=C1NC[C@@H](C(=O)NC(c2ccc(F)c(C(F)F)n2)c2ccc(F)c(Cl)c2F)N1 (single isomer, unassigned) [Example 63A, (S)-N-((R or S)-(3-chloro-2,4-difluorophenyl)(6-(difluoromethyl)-5-fluoropyridin-2-yl)methyl)-2-oxoimidazolidine-4-carboxamide] | 4.2 nM
6 | O=C1NC[C@@H](C(=O)NC(c2cnc(OC(F)F)nc2)c2ccc(F)c(Cl)c2F)N1 (single isomer, unassigned) [Example 64A, (S)-N-((R or S)-(3-chloro-2,4-difluorophenyl)(2-(difluoromethoxy)pyrimidin-5-yl)methyl)-2-oxoimidazolidine-4-carboxamide] | 79 nM
7 | O=C1NC[C@@H](C(=O)NC(c2cnc(OC(F)F)nc2)c2ccc(F)c(Cl)c2F)N1 (single isomer, unassigned) [Example 64B, (S)-N-((R or S)-(3-chloro-2,4-difluorophenyl)(2-(difluoromethoxy)pyrimidin-5-yl)methyl)-2-oxoimidazolidine-4-carboxamide] | 805 nM
8 | CC(N1CC(C)(C(NC(=O)[C@@H]2CNC(=O)N2)c2ccc(F)c(Cl)c2F)C1)C(F)(F)F (single isomer, unassigned) [Example 65C, (S)—N—((R or S)-(3-chloro-2,4-difluorophenyl)(3-methyl-1-((R or S)-1,1,1-trifluoropropan-2-yl)azetidin-3-yl)methyl)-2-oxoimidazolidine-4-carboxamide] | 309 nM
9 | Cc1nc2cc(C(NC(=O)[C@@H]3CNC(=O)N3)c3ccc(F)c(Cl)c3)ccc2s1 (single isomer, unassigned) [Example 66A, (S)—N—((R or S)-(3-chloro-4-fluorophenyl)(2-methylbenzo[d]thiazol-5-yl)methyl)-2-oxoimidazolidine-4-carboxamide] | 63 nM
10 | O=C1NC[C@@H](C(=O)NC(c2ccc(F)c(Cl)c2)[C@@H]2CC[C@H]2C(F)(F)F)N1 (single isomer, unassigned) [Example 67A, (S)-N-((R or S)-(3-chloro-4-fluoro-phenyl)(trans-2-(trifluoromethyl)cyclobutyl)methyl)-2-oxoimidazolidine-4-carboxamide] | 182 nM
11 | O=C1NC[C@@H](C(=O)NC(c2ccc(F)c(Cl)c2)C2Cc3c(Cl)cccc32)N1 (single isomer, unassigned) [Example 70D, (S)-N-((R or S)-(3-chloro-4-fluoro-phenyl)((R or S)-2-chlorobicyclo[4.2.0]-octa-1(6),2,4-trien-7-yl)methyl)-2-oxoimidazolidine-4-carboxamide] | 650 nM

Further compounds by falling IC50, results first:

Row | IC50 | Compound
12 | 16200 nM | CC(N1CC(C)(C(NC(=O)[C@@H]2CNC(=O)N2)c2ccc(F)c(Cl)c2F)C1)C(F)(F)F (single isomer, unassigned) [Example 65A, (S)—N—((R or S)-(3-chloro-2,4-difluorophenyl)(3-methyl-1-((R or S)-1,1,1-trifluoropropan-2-yl)azetidin-3-yl)methyl)-2-oxoimidazolidine-4-carboxamide]
13 | 7760 nM | CC(N1CC(C)(C(NC(=O)[C@@H]2CNC(=O)N2)c2ccc(F)c(Cl)c2F)C1)C(F)(F)F (single isomer, unassigned) [Example 65D, (S)—N—((R or S)-(3-chloro-2,4-difluorophenyl)(3-methyl-1-((R or S)-1,1,1-trifluoropropan-2-yl)azetidin-3-yl)methyl)-2-oxoimidazolidine-4-carboxamide]
14 | 965 nM | O=C1NC[C@@H](C(=O)NC(c2ccc(F)c(Cl)c2)[C@@H]2CC[C@H]2C(F)(F)F)N1 (single isomer, unassigned) [Example 67B, (S)-N-((R or S)-(3-chloro-4-fluoro-phenyl)(trans-2-(trifluoromethyl)cyclobutyl)methyl)-2-oxoimidazolidine-4-carboxamide]
15 | 302 nM | CC(N1CC(C)(C(NC(=O)[C@@H]2CNC(=O)N2)c2ccc(F)c(Cl)c2F)C1)C(F)(F)F (single isomer, unassigned) [Example 65B, (S)—N—((R or S)-(3-chloro-2,4-difluorophenyl)(3-methyl-1-((R or S)-1,1,1-trifluoropropan-2-yl)azetidin-3-yl)methyl)-2-oxoimidazolidine-4-carboxamide]
16 | 130 nM | O=C1NC[C@@H](C(=O)NC(c2ccc(F)c(Cl)c2F)C2CCCCN2CC(F)(F)F)N1 (single isomer, unassigned) [Example 58C, (S)-N-((R or S)-(3-chloro-2,4-difluorophenyl) ((R or S)-1-(2,2,2-trifluoroethyl)piperidin-2-yl)methyl)-2-oxoimidazolidine-4-carboxamide]
17 | 117 nM | O=C1NC[C@@H](C(=O)NC(c2ccc(F)c(Cl)c2)C2Cc3c(Cl)cccc32)N1 (single isomer, unassigned) [Example 70C, (S)-N-((R or S)-(3-chloro-4-fluoro-phenyl)((R or S)-2-chlorobicyclo[4.2.0]-octa-1(6),2,4-trien-7-yl)methyl)-2-oxoimidazolidine-4-carboxamide]
18 | 62 nM | O=C1NC[C@@H](C(=O)NC(c2ccc(Cl)cc2)c2cc(C(F)(F)F)c(F)cn2)N1 (single isomer, unassigned) [Example 59B, (S)-N-((R or S)-(4-chlorophenyl)(5-fluoro-4-(trifluoromethyl)pyridin-2-yl)methyl)-2-oxo-imidazolidine-4-carboxamide]
19 | 44 nM | O=C1NC[C@@H](C(=O)NC(c2ccc(Cl)cc2)c2cc(C(F)(F)F)c(F)cn2)N1 (single isomer, unassigned) [Example 59A, (S)-N-((R or S)-(4-chlorophenyl)(5-fluoro-4-(trifluoromethyl)pyridin-2-yl)methyl)-2-oxoimidazolidine-4-carboxamide]
20 | 26 nM | O=C1NC[C@@H](C(=O)NC(c2ccc(F)c(Cl)c2)C2Cc3c(Cl)cccc32)N1 (single isomer, unassigned) [Example 70A, (S)-N-((R or S)-(3-chloro-4-fluoro-phenyl)((R or S)-2-chlorobicyclo[4.2.0]-octa-1(6),2,4-trien-7-yl)methyl)-2-oxoimidazolidine-4-carboxamide]
21 | 16 nM | O=C1NC[C@@H](C(=O)NC(c2ccc(F)c(C(F)F)n2)c2ccc(F)c(Cl)c2F)N1 (single isomer, unassigned) [Example 63B, (S)-N-((R or S)-(3-chloro-2,4-difluorophenyl)(6-(difluoromethyl)-5-fluoropyridin-2-yl)methyl)-2-oxoimidazolidine-4-carboxamide]
22 | 9 nM | O=C1NC[C@@H](C(=O)NC(c2ccc(F)c(Cl)c2)C2Cc3c(Cl)cccc32)N1 (single isomer, unassigned) [Example 70B, (S)-N-((R or S)-(3-chloro-4-fluoro-phenyl)((R or S)-2-chlorobicyclo[4.2.0]-octa-1(6),2,4-trien-7-yl)methyl)-2-oxoimidazolidine-4-carboxamide]
23 | 3.8 nM | N#Cc1ccc(C(NC(=O)[C@@H]2CNC(=O)N2)c2ccc(Cl)c(C(F)(F)F)c2)cc1 (single isomer, unassigned) [Example 60B, (S)-N-((R or S)-(4-chloro-3-(trifluoromethyl)-phenyl)(4-cyanophenyl)-methyl)-2-oxo-imidazolidine-4-carboxamide]
24 | 3.8 nM | Cc1nc2cc(C(NC(=O)[C@@H]3CNC(=O)N3)c3ccc(F)c(Cl)c3)ccc2s1 (single isomer, unassigned) [Example 66B, (S)—N—((R or S)-(3-chloro-4-fluorophenyl)(2-methylbenzo[d]thiazol-5-yl)methyl)-2-oxoimidazolidine-4-carboxamide]
25 | 0.4 nM | O=C1NC[C@@H](C(=O)NC(c2ccc(F)c(Cl)c2)c2ccc(Cl)c(C(F)(F)F)n2)N1 (single isomer, unassigned) [Example 62B, (S)-N-((R or S)-(3-chloro-4-fluorophenyl)(5-chloro-6-(trifluoromethyl)pyridin-2-yl)methyl)-2-oxoimidazolidine-4-carboxamide]
26 | 0.2 nM | O=C1NC[C@@H](C(=O)NC(c2ccc(F)c(Cl)c2)c2cc3cc(Cl)ccc3o2)N1 (single isomer, unassigned) [Example 73A, (S)-N-((R or S)-(3-chloro-4-fluorophenyl)(5-chlorobenzofuran-2-yl)methyl)-2-oxoimidazolidine-4-carboxamide]
27 | 0.2 nM | O=C1NC[C@@H](C(=O)NC(c2ccc(F)c(Cl)c2)c2cc3cc(Cl)ccc3o2)N1 (single isomer, unassigned) [Example 73B, (S)-N-((R or S)-(3-chloro-4-fluorophenyl)(5-chlorobenzofuran-2-yl)methyl)-2-oxoimidazolidine-4-carboxamide]
